We go through twelve molecules from patent publication US20090142808A1, “NOVEL ENZYME WITH FRUCTOFURANOSIDASE ACTIVITY, WHICH IS USED TO OBTAIN PREBIOTIC OLIGOSACCHARIDES” (Consejo Superior de Investigaciones Cientificas, priority 2005, published 2009).

For experiment [1], the system named is extracellular fraction of X. dendrorhous (fructofuranosidase activity). Kind of experiment: Fructofuranosidase activity of the cell-free extracellular fraction on different carbohydrates (glucose release, glucose oxidase-peroxidase). Format: biochemical, Xanthophyllomyces dendrorhous. Conditions: for Specific activity: cell-free fraction of culture in maltose minimal medium, 2.37 ODU660 nm; for Fructofuranosidase activity detected: cell-free fraction, compound used as substrate. How it is done: (§1) The cell-free fraction was obtained by centrifugation (F-0) of an X. dendrorhous culture grown at 23° C. and 160 rpm. Fructofuranosidase activity was assayed in this fraction by assessing the release of glucose on different substrates. A colorimetric assay and standard methodology were used. The released glucose was quantified using the glucose oxidase-peroxidase coupled reaction: 0.4 ml of the solution to be assayed was mixed with 0.1 ml of A:B solution (20:1) (A: 0.85 U/ml glucose oxidase, 0.40 U/ml peroxidase in sodium phosphate buffer pH 5; B: 0.6% o-dianisidine). It was incubated for 30 minutes at 37° C. and spectrophotometrically quantified at 450 nm. A standard glucose curve (1 to 100 μg/ml) was used. The fructofuranosidase activity unit is defined in μg/ml min of glucose assessed in the described conditions.
The cell-free fraction, obtained by centrifuging an X. dendrorhous culture in maltose minimal medium, grown to an optical density of 2.37 ODU660 nm, was assayed on different substrates.

The test system of experiment [2] is X. dendrorhous F-3 fraction (purified fructofuranosidase). Kind of experiment: Hydrolytic (fructofuranosidase) activity of the purified enzyme F-3 on different substrates. Format: biochemical, Xanthophyllomyces dendrorhous. Conditions: for Specific activity: purified protein, 1% substrate; for Hydrolytic activity observed: enzyme purified to homogeneity (F-3). The method, then:
as §1
The hydrolytic activity of the enzyme purified to homogeneity (F-3) following the described process was assayed on different substrates.

For experiment [3], the system named is purified X. dendrorhous enzyme (F-3). Nature of the experiment: Fructosyltransferase activity: sucrose 600 g/l incubated with purified enzyme at 45° C., HPLC. It counts as biochemical, Xanthophyllomyces dendrorhous. Conditions: for Composition of the reaction mixture: 45° C., 600 g sucrose/l, 5 U/ml; for composition of the system at the end time: Example 8: 160 hours, 40° C. as printed (heading 45° C.), 200 rpm, FOS = tri- and tetrasaccharides. The method, then:
(§2) A study was carried out using a high concentration of sucrose (600 g/l), conditions which can favor the formation of glycosidic bonds in detriment of hydrolysis. […] On one hand, fructose (peak 1) and glucose (peak 2) are formed as hydrolytic products. On the other hand, two trisaccharides are formed: a majority product (peak 4), which is most likely neokestose [β-D-Fru-(2→6)-α-D-Glu-(1→2)-D-Fru] (since it is the majority transfructosylation product described in X. dendrorhous cultures) and another minor product (peak 5), identified as 1-kestose [α-D-Glu-(1→2)-β-D-Fru(1→2)-β-D-Fru]. Small amounts of different compounds (peaks 6-8) which, taking into account the retention time in the column, are probably tetrasaccharides not yet identified, are furthermore observed. The sucrose which has not yet reacted corresponds to peak 3.
A solution with a high concentration of sucrose (600 g/l) in 0.2 M sodium acetate buffer pH 5.6 was prepared. 5 U/ml of fructofuranosidase (a unit U is the enzymatic activity corresponding to the release of a micromole of reducer sugars per minute using sucrose 100 g/l as a substrate in 0.2 M buffer sodium acetate pH 5.6 at 60° C.) were added. […] Aliquots were extracted at different times, incubated for 5 minutes at 80° C. to inactivate the enzyme, diluted 1:4 (v/v) with water, centrifuged for 5 min at 6000 rpm in an Eppendorf tube with a 0.45 μm filter and analyzed by HPLC liquid chromatography. The profile of the products formed can be seen in FIG. 5. […] Two trisaccharides are obtained: a majority product which is most likely neokestose [β-D-Fru-(2→6)-α-D-Glu-(1→2)-D-Fru] and another minor product identified as 1-kestose [α-D-Glu-(1→2)-β-D-Fru(1→2)-β-D-Fru]. At the end time (160 hours), the composition of the system was: 10.5% fructose, 17.6% glucose, 54.6% sucrose, 17.3% fructooligosaccharides (tri- and tetrasaccharides).

The test system is the same in experiment [4]. Nature of the experiment: Fructosyltransferase activity: sucrose 600 g/l incubated with purified enzyme at 60° C., HPLC. It counts as biochemical, Xanthophyllomyces dendrorhous. How it is done: as §2
The total percentage (w/w) of fructooligosaccharides after 160 hours of reaction was the 9.7%, value relating to the total carbohydrates in the medium.

Experiment [5] deals with Whole X. dendrorhous cells. Conditions: cell suspension in phosphate-citrate buffer, 25° C., 11% sucrose; cited from earlier work.
Experiment [6] concerns the target X. dendrorhous fructofuranosidase (Phaffia rhodozyma, UniProt B8YJM2). Kind of experiment: Kinetic characterization of the purified enzyme on sucrose. Format: biochemical, Xanthophyllomyces dendrorhous. Conditions: 20 minutes, 20 μl purified enzyme; standard error of the mean ±10. How it is done: The kinetic characterization of the enzyme purified according to the described process was performed on sucrose. […] The assays were performed in 20 minutes and 20 μl of purified enzyme for each reaction according to the described process.

[7] abbreviates: 160 h, new catalyst load (5 U) added after 140 hours.
[8] abbreviates: 186 h, new catalyst load (5 U) added after 140 hours.
[9] abbreviates: reaction time 24 h, 600 g sucrose/l, 5 U/ml.
The mark [10] stands for this setting: reaction time 140 h, 600 g sucrose/l, 5 U/ml.
[11] abbreviates: reaction time 160 h, 600 g sucrose/l, 5 U/ml.

Chain of X. dendrorhous fructofuranosidase (B8YJM2 entry or part of it): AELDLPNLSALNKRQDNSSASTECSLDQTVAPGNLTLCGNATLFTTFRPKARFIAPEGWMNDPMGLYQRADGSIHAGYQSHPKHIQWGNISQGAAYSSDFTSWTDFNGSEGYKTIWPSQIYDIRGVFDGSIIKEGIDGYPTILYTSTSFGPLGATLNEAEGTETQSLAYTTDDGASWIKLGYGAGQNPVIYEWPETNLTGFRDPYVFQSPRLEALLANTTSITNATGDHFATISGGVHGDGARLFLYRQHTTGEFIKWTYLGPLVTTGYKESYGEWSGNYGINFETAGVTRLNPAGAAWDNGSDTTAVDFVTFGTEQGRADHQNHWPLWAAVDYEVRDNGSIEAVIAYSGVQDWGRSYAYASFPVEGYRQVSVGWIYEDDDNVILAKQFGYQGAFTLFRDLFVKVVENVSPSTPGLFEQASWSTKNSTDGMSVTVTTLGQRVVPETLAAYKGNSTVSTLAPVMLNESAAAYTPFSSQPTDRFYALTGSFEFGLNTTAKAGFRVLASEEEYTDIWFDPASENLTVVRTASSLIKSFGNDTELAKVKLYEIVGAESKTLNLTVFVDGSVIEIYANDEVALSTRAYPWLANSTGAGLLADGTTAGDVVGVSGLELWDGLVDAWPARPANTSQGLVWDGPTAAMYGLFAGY

`OC[C@H]1O[C@H](OC[C@H]2O[C@H](O[C@]3(CO)O[C@H](CO)[C@@H](O)[C@@H]3O)[C@H](O)[C@@H](O)[C@@H]2O)[C@H](O)[C@@H](O)[C@H]1O` [raffinose]: the Specific activity in experiment [1] is listed as 335 mU/μg; in experiment [2], 8 U/μg.

As to `O=C[C@H](O)[C@@H](O)[C@H](O)[C@H](O)CO` [glucose], the “Composition of the reaction mixture” value in experiment [3] (reaction time 24 h) worked out at 37.8 grams/liter; in experiment [3] (reaction time 140 h) it was 106.8 grams/liter; in experiment [3] (reaction time 160 h) it was 109.3 grams/liter; in experiment [4] (setting [7]) it was 119.5 grams/liter; in experiment [4] (setting [8]) it was 131.2 grams/liter; in experiment [4] (setting [9]) it was 53.2 grams/liter. The “Composition of the reaction mixture” value in experiment [4] (setting [10]) is given as 79.3 grams/liter; in experiment [4] (setting [11]) it was 84.3 grams/liter. The “composition of the system at the end time” value (shortened to “composition of the system”) in experiment [3] is reported as 17.6%.

Consider `OC[C@H]1O[C@H](O[C@H]2[C@H](O)[C@@H](O)[C@@H](O[C@H]3[C@H](O)[C@@H](O)[C@@H](O[C@H]4[C@H](O)[C@@H](O)[C@@H](O[C@H]5[C@H](O)[C@@H](O)[C@@H](O[C@H]6[C@H](O)[C@@H](O)[C@@H](O[C@H]7[C@H](O)[C@@H](O)C(O)O[C@@H]7CO)O[C@@H]6CO)O[C@@H]5CO)O[C@@H]4CO)O[C@@H]3CO)O[C@@H]2CO)[C@H](O)[C@@H](O)[C@@H]1O` (some centres unmarked) [maltoheptose], for which, in experiment [1], the “Fructofuranosidase activity detected” value is “No activity was detected”. The “Hydrolytic activity observed” value in experiment [2] is “No activity was observed”.

As for `OC[C@H]1O[C@H](O[C@H]2[C@H](O)[C@@H](O)C(O)O[C@@H]2CO)[C@H](O)[C@@H](O)[C@@H]1O` (mixture of isomers) [maltose], the “Fructofuranosidase activity detected” value in experiment [1] was “No activity was detected”. Besides, the “Hydrolytic activity observed” value in experiment [2] is reported as “No activity was observed”.

With `OC[C@H]1O[C@H](O[C@@H]2COC(O)(CO)[C@@H](O)[C@@H]2O)[C@H](O)[C@@H](O)[C@@H]1O` (some centres unmarked) [leucrose], in experiment [1], the “Fructofuranosidase activity detected” value is “No activity was detected”. Moreover, the “Hydrolytic activity observed” value in experiment [2] is recorded as “No activity was observed”.

In the case of `OC[C@H]1O[C@@](CO)(OC[C@H]2O[C@H](O[C@]3(CO)O[C@H](CO)[C@@H](O)[C@@H]3O)[C@H](O)[C@@H](O)[C@@H]2O)[C@@H](O)[C@@H]1O` [neokestose], the “Composition of the reaction mixture” value is recorded as 20.5 grams/liter in experiment [3] (reaction time 24 h); 47.4 grams/liter in experiment [3] (reaction time 140 h); 53.3 grams/liter in experiment [3] (reaction time 160 h); 41.6 grams/liter in experiment [4] (setting [7]); 43.9 grams/liter in experiment [4] (setting [8]); 25.8 grams/liter in experiment [4] (setting [9]). Besides, the “Composition of the reaction mixture” value in experiment [4] (setting [10]) was 34.3 grams/liter; in experiment [4] (setting [11]), 36.5 grams/liter. Also, in experiment [5], the “maximum of neokestose obtained” value was 75.1 g/L.

Take `O=C(CO)[C@@H](O)[C@H](O)[C@H](O)CO` [fructose]: the “Composition of the reaction mixture” value in experiment [3] (reaction time 24 h) turned out to be 19.0 grams/liter; in experiment [3] (reaction time 140 h), 63.5 grams/liter; in experiment [3] (reaction time 160 h), 65.1 grams/liter; in experiment [4] (setting [7]), 56.5 grams/liter; in experiment [4] (setting [8]), 76.0 grams/liter; in experiment [4] (setting [9]), 36.8 grams/liter. For the same molecule, the “Composition of the reaction mixture” value in experiment [4] (setting [10]) was 40.9 grams/liter; in experiment [4] (setting [11]) it was 41.2 grams/liter. Besides, in experiment [3], the “composition of the system” value amounted to 10.5%.

Take `OC[C@H]1O[C@H](OC[C@H]2OC(O)(CO)[C@@H](O)[C@@H]2O)[C@H](O)[C@@H](O)[C@@H]1O` (some centres unmarked) [palatinose]: the values for the Specific activity in experiment [1] and in experiment [2] were 217 mU/μg and 5 U/μg, respectively.

Broadly, the Km is the concentration of substrate that gives half-maximal velocity. The term kcat denotes the number of substrate molecules converted per active site and unit of time at saturation. For `OC[C@H]1O[C@@](CO)(O[C@H]2O[C@H](CO)[C@@H](O)[C@H](O)[C@H]2O)[C@@H](O)[C@@H]1O` [sucrose], the “Composition of the reaction mixture” value in experiment [3] (reaction time 24 h) was 513.4 grams/liter; in experiment [3] (reaction time 140 h), 357.5 grams/liter; in experiment [3] (reaction time 160 h), 338.9 grams/liter; in experiment [4] (setting [7]), 358.4 grams/liter; in experiment [4] (setting [8]) it was 323.1 grams/liter; in experiment [4] (setting [9]), 474.0 grams/liter. The figures for the “Composition of the reaction mixture” value in experiment [4] (setting [10]) and in experiment [4] (setting [11]) were 424.2 grams/liter and 416.1 grams/liter, respectively. The “composition of the system” value in experiment [3] worked out at 54.6%. In addition, the Specific activity came to 62140 mU/μg in experiment [1] and 675 U/μg in experiment [2]. In experiment [6], the Km turned out to be 4 mM. Also, the Vmax in experiment [6] is on record as 947 μg glucose min^−1. The kcat in experiment [6] was found to be 2.35 s⁻¹.

In the case of `OC[C@H]1O[C@@](CO)(OC[C@@]2(O[C@H]3O[C@H](CO)[C@@H](O)[C@H](O)[C@H]3O)O[C@H](CO)[C@@H](O)[C@@H]2O)[C@@H](O)[C@@H]1O` [1-kestose], the “Composition of the reaction mixture” value in experiment [3] (reaction time 24 h) is given as 9.2 grams/liter; in experiment [3] (reaction time 140 h) it was 24.8 grams/liter; in experiment [3] (reaction time 160 h), 33.5 grams/liter; in experiment [4] (setting [7]), 23.9 grams/liter; in experiment [4] (setting [8]), 25.8 grams/liter; in experiment [4] (setting [9]), 10.3 grams/liter. In addition, the “Composition of the reaction mixture” value in experiment [4] (setting [10]) was 21.3 grams/liter; in experiment [4] (setting [11]) it was 21.9 grams/liter. The Specific activity is 1675 mU/μg in experiment [1] and 41 U/μg in experiment [2].

For `OC[C@H]1O[C@@](CO)(OC[C@@]2(OC[C@@]3(O[C@H]4O[C@H](CO)[C@@H](O)[C@H](O)[C@H]4O)O[C@H](CO)[C@@H](O)[C@@H]3O)O[C@H](CO)[C@@H](O)[C@@H]2O)[C@@H](O)[C@@H]1O` [nistose], the Specific activity amounted to 502 mU/μg in experiment [1] and 13 U/μg in experiment [2].

For the molecule maltotriose, the “Fructofuranosidase activity detected” value in experiment [1] was “No activity was detected”. Besides, the “Hydrolytic activity observed” value in experiment [2] was “No activity was observed”.
